# US8691812B2, “Pesticidal composition and its use” (Sumitomo Chemical Company, Limited, priority 2010, dated 2014)
# System: Rhizoctonia solani
# Assay: Soybean seed treatment test in soil contaminated by Rhizoctonia solani (disease control efficacy)
# Type: in vivo, Rhizoctonia solani on soybean (variety: Natto shoryu)
# Conditions: carboxamide compound alone, 0.2 g/100 kg of seeds; soybean seed application; cultivated 20 days in soil contaminated by Rhizoctonia solani; efficacy vs non-treated plot
# Description: A cyclohexanone solution (100microL) containing prescribed amount (weight) of a test compound was applied on seeds of soybean (variety : Natto shoryu) (10 g) by using a rotary apparatus for seed treatment (Seed dresser, manufactured by Hans-Ulrich Hege GmbH).
# One day after the application, plastic pot was filled with soil contaminated by Rhizoctonia solani, and the seeds treated with the test compounds were seeded in the soil and cultivated in a glass-greenhouse for 20 days (hereinafter referred to as “treated plot”).
# Thereafter, the presence of disease caused by Rhizoctonia solani in the young plants which germinated from each seed was observed and disease severity was calculated according to the following calculation formula (1).
# On the other hand, seeds of soybean which were not treated as above were cultivated in the same way as above (hereinafter referred to as “non-treated plot”) and the disease severity in “non-treated plot” was calculated in the same way as the above “treated plot”. On the basis of the above severity of disease in “treated plot” and “non-treated plot”, efficacy in the “treated plot” was evaluated according to the following calculation formula (2).
# Calculation formula (1): Disease severity (%)=(number of infected young plants/total number of young plants)×100 […]
row,SMILES,efficacy (%)
1,CC1CC(C)(C)c2cccc(NC(=O)c3cn(C)nc3C(F)F)c21 (centres unmarked) [carboxamide compound (1)],42.1%
2,Cc1nn(C)c(C)c1C(=O)Nc1cccc2c1C(C)CC2(C)C (centres unmarked) [carboxamide compound (5)],21.1%
